According to US20240124454A1, “TRICYCLIC COMPOUND AND USE THEREOF” (NANJING ZAIMING PHARMACEUTICAL CO., LTD., priority 2020, published 2024):
Where two headings read alike, the source gives them in different places.

Molecular target: MAT2A (Homo sapiens (Human), UniProt P31153)
Test: MAT2A biochemical test (inorganic phosphate colorimetric, PiColorLock)
Conditions: read-out: MAT2A inhibitory Activity IC50
Source text: Test Example 1. Biochemical Test
The brief introduction of the test principle: L-methionine and ATP can be converted into SAM, inorganic phosphate, and inorganic diphosphate under the catalysis of MAT2A enzymes. The content of inorganic phosphate in the sample can be quantitatively determined by adding a developer such as ammonium molybdate or the like to the enzymatic reaction mixture, thereby reflecting the enzymatic activity of MAT2A.
Reference: The experiment referred to the method disclosed in patent WO2018045071.
Material: MAT2A screening kits were purchased from BPS bioscience (U.S.); 384-well plates were purchased from Corning Company (U.S.). • 1. MAT2A protein (Pharmaron Beijing Co., Ltd.); • 2. L-methionine (Sigma #M9625-5G) • 3. ATP (Sigma #A7699-1G) • 4. KCl (Sigma #60142-500ML-F) • 5. Tris (Sigma #T2663-1L) • 6. MgCl2 (Sigma #M1028) • 7. EDTA (Invitrogen #AM9260G) • 8. BSA (Sangon Biotech #A500023-0100) • 9. PiColorLock (abcam #ab270004)
Detection method: In the experimental group, the test compound was dissolved in DMSO, diluted to a final concentration of 10 μM using Echo, and diluted 3-fold. 80 nL of the dilution was transferred to a 384-well plate.
The experimental buffer (50 mM Tris, 50 mM KCl, 15 mM MgCl2, 100 μM EDTA, 0.005% BSA) was prepared. The MAT2A protein was diluted with the experimental buffer (at final concentration of […]). 40 μL of 2×MAT2A solution was added to the 384-well plate. The plate was centrifuged at 1000 rpm for 1 min and incubated at room temperature for 120 min.
L-methionine and ATP (the final concentration of L-methionine was […] and the final concentration of ATP was 400 μM) were diluted with the experimental buffer. 40 μL of 2×L-methionine and ATP solution was added to initiate the reaction. The plate was centrifuged at 1000 rpm for 1 min and incubated at room temperature for 90 min.
The PiColorLock™ reaction catalyst was mixed with the PiColorLock™ buffer at a ratio of 1:100 according to the instructions. 20 μL was added to each well, and the plate was shaken for 30 s. 8 μL stabilizing reagent was added, and the plate was shaken for 30 s. The signal values were measured after 30 min of incubation at room temperature.
A negative control group and a positive control group were respectively used as Bottom and Top. The negative control group was not added with MAT2A protein, and other operations were consistent with those of the experimental group. The positive control group was not added with the test compound, only added with DMSO in the same volume, and other operations were consistent with those of the experimental group.
The % Compound inhibition was calculated and fitted to give the IC50 of the compound.
% Compound inhibition=1-100%×(Signal−Bottom)/(Top−Bottom).
Signal referred to the signal value of the experimental group, Bottom referred to the average signal value of the negative control group, and Top referred to the average signal value of the positive control group.
Under the condition of this experiment, the inhibitory effect of the test compound on MAT2A can be expressed as the IC50 of the inhibition on the phosphate production level during the enzymatic reaction.

MAT2A, sequence (P31153 whole entry): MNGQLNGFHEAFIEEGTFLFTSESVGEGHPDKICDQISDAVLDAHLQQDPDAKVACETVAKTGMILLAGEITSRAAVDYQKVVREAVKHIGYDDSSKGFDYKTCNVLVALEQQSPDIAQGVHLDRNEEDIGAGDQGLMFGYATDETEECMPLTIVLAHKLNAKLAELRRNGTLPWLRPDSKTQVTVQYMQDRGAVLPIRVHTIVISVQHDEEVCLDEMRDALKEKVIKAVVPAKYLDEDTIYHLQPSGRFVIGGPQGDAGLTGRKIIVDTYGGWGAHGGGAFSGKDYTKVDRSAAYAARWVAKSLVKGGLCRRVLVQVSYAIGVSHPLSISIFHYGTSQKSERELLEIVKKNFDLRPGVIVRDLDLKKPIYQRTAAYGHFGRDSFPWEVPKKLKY

Row | SMILES | IC50 (class symbols) | IC50 (numeric values)
1 | Cn1cnc2c(=O)n(-c3ccccc3)c3nc(C(F)(F)F)ccc3c21 [Compound 21, 1-methyl-5-phenyl-7-(trifluoromethyl)-1,5-dihydro-4H-imidazo[4,5-c][1,8]naphthyridin-4-one] | < 100 nM | 64.9 nM
2 | Cn1cnc2c(=O)n(-c3ccc(Cl)cc3)c3nc(C(F)(F)F)ccc3c21 [Compound 19, 5-(4-chlorophenyl)-1-methyl-7-(trifluoromethyl)-1,5-dihydro-4H-imidazo[4,5-c][1,8]naphthyridin-4-one] | < 100 nM | 51.4 nM
3 | Cc1ncccc1-n1c(=O)c2ncn(C)c2c2cnc(C(F)(F)F)nc21 [Compound 75, 1-methyl-5-(2-methylpyridin-3-yl)-7-(trifluoromethyl)-1,5-dihydro-4H-imidazo[4′,5′:4,5]pyrido[2,3-d]pyrimidin-4-one] | < 100 nM | 71.7 nM
4 | Cn1cnc2c(=O)n(-c3cccnc3C3CC3)c3cc(C(F)(F)F)ccc3c21 (atropisomer, axis not shown) [Compound 48, 5-(2-cyclopropylpyridin-3-yl)-1-methyl-7-(trifluoromethyl)-1,5-dihydro-4H-imidazo[4,5-c]quinolin-4-one] | < 100 nM | 36 nM
5 | C#Cc1cccc(-n2c(=O)c3ncn(C)c3c3ccc(C(F)(F)F)nc32)c1Cl (single isomer, unassigned) [Compound 80-P2, 5-(2-chloro-3-ethynylphenyl)-1-methyl-7-(trifluoromethyl)-1,5-dihydro-4H-imidazo[4,5-c][1,8]naphthyridin-4-one] | < 100 nM | 32.5 nM
6 | NCCn1cnc2c(=O)n(-c3ccccc3Cl)c3nc(C(F)(F)F)ccc3c21 [Compound 55, 1-(2-aminoethyl)-5-(2-chlorophenyl)-7-(trifluoromethyl)-1,5-dihydro-4H-imidazo[4,5-c][1,8]naphthyridin-4-one] | 100 to 500 nM | 296 nM
7 | CCOc1ccc2c3[nH]c(OC)nc3c(=O)n(-c3ccc(OC(F)F)cc3)c2n1 [Compound 11, 5-(4-(difluoromethoxy)phenyl)-7-ethoxy-2-methoxy-1,5-dihydro-4H-imidazo[4,5-c][1,8]naphthyridin-4-one] | < 100 nM | 56.6 nM
8 | CN(C)CCn1cnc2c(=O)n(-c3ccccc3Cl)c3nc(C(F)(F)F)ccc3c21 [Compound 53, 5-(2-chlorophenyl)-1-(2-(dimethylamino)ethyl)-7-(trifluoromethyl)-1,5-dihydro-4H-imidazo[4,5-c][1,8]naphthyridin-4-one] | 100 to 500 nM | 314 nM
9 | O=c1c2ncn(CCO)c2c2ccc(C(F)(F)F)nc2n1-c1ccccc1Cl [Compound 50, 5-(2-chlorophenyl)-1-(2-hydroxyethyl)-7-(trifluoromethyl)-1,5-dihydro-4H-imidazo[4,5-c][1,8]naphthyridin-4-one] | 100 to 500 nM | 113 nM
10 | O=c1[nH]c2c(=O)n(-c3ccccc3Cl)c3nc(C(F)(F)F)ccc3c2[nH]1 [Compound 4, 5-(2-chlorophenyl)-7-(trifluoromethyl)-3,5-dihydro-1H-imidazo[4,5-c][1,8]naphthyridine-2,4-dione] | < 100 nM | 69.6 nM
11 | Cc1ccc2c3c(ncn3C)c(=O)n(-c3ccccc3Cl)c2n1 [Compound 56, 5-(2-chlorophenyl)-1,7-dimethyl-1,5-dihydro-4H-imidazo[4,5-c][1,8]naphthyridin-4-one] | < 100 nM | 73.7 nM
12 | Cn1cnc2c(=O)n(-c3ccc(Cl)cc3Cl)c3nc(C(F)(F)F)ccc3c21 [Compound 62, 5-(2,4-dichlorophenyl)-1-methyl-7-(trifluoromethyl)-1,5-dihydro-4H-imidazo[4,5-c][1,8]naphthyridin-4-one] | 100 to 500 nM | 251 nM
13 | O=c1c2cn[nH]c2c2ccc(C(F)(F)F)nc2n1-c1ccccc1Cl [Compound 7, 5-(2-chlorophenyl)-7-(trifluoromethyl)-1,5-dihydro-4H-pyrazolo[4,3-c][1,8]naphthyridin-4-one] | 100 to 500 nM | 128 nM
14 | Cn1cnc2c(=O)n(-c3cccc(F)c3Cl)c3cc(C(F)(F)F)ccc3c21 [Compound 66, 5-(2-chloro-3-fluorophenyl)-1-methyl-7-(trifluoromethyl)-1,5-dihydro-4H-imidazo[4,5-c]quinolin-4-one] | < 100 nM | 47.3 nM
15 | Cn1cnc2c(=O)n(-c3cccc(F)c3)c3nc(C(F)(F)F)ccc3c21 [Compound 63, 5-(3-fluorophenyl)-1-methyl-7-(trifluoromethyl)-1,5-dihydro-4H-imidazo[4,5-c][1,8]naphthyridin-4-one] | < 100 nM | 48.1 nM
16 | Cn1cnc2c(=O)n(-c3cncnc3)c3nc(C(F)(F)F)ccc3c21 [Compound 76, 1-methyl-5-(pyrimidin-5-yl)-7-(trifluoromethyl)-1,5-dihydro-4H-imidazo[4,5-c][1,8]naphthyridin-4-one] | 100 to 500 nM | 201 nM
17 | O=c1c2ocnc2c2ccc(C(F)(F)F)nc2n1-c1ccccc1Cl [Compound 51, 5-(2-chlorophenyl)-7-(trifluoromethyl)oxazolo[5,4-c][1,8]naphthyridin-4(5H)-one] | 100 to 500 nM | 182 nM
18 | COc1ccc(-n2c(=O)c3ncn(C)c3c3ccc(C(F)(F)F)nc32)cc1 [Compound 59, 5-(4-methoxyphenyl)-1-methyl-7-(trifluoromethyl)-1,5-dihydro-4H-imidazo[4,5-c][1,8]naphthyridin-4-one] | 100 to 500 nM | 252 nM
19 | Cn1cnc2c(=O)n(-c3ccccc3F)c3nc(C(F)(F)F)ccc3c21 [Compound 23, 5-(2-fluorophenyl)-1-methyl-7-(trifluoromethyl)-1,5-dihydro-4H-imidazo[4,5-c][1,8]naphthyridin-4-one] | < 100 nM | 78.8 nM
20 | Cn1cnc2c(=O)n(-c3cccc(Cl)c3)c3nc(C(F)(F)F)ccc3c21 [Compound 22, 5-(3-chlorophenyl)-1-methyl-7-(trifluoromethyl)-1,5-dihydro-1H-imidazo[4,5-c][1,8]naphthyridin-4-one] | 100 to 500 nM | 
21 | CCn1cnc2c(=O)n(-c3ccccc3Cl)c3nc(C(F)(F)F)ccc3c21 [Compound 61, 5-(2-chlorophenyl)-1-ethyl-7-(trifluoromethyl)-1,5-dihydro-4H-imidazo[4,5-c][1,8]naphthyridin-4-one] | 100 to 500 nM | 102 nM
22 | Cn1cnc2c(=O)n(-c3ccccc3C(F)(F)F)c3nc(C(F)(F)F)ccc3c21 (single isomer, unassigned) [Compound 57-P2, 1-methyl-7-(trifluoromethyl)-5-(2-(trifluoromethyl)phenyl)-1,5-dihydro-4H-imidazo[4,5-c][1,8]naphthyridin-4-one] | < 100 nM | 42 nM
23 | Cc1cnccc1-n1c(=O)c2ncn(C)c2c2ccc(C(F)(F)F)nc21 [Compound 27, 1-methyl-5-(3-methylpyridin-4-yl)-7-(trifluoromethyl)-1,5-dihydro-4H-imidazo[4,5-c][1,8]naphthyridin-4-one] | 500 to 1000 nM | 819 nM
24 | O=c1c2ocnc2c2ccc(C(F)(F)F)nc2n1-c1ccc(OC(F)F)cc1 [Compound 18, 5-(4-(difluoromethoxy)phenyl)-7-(trifluoromethyl)oxazolo[5,4-c][1,8]naphthyridin-4(5H)-one] | 100 to 500 nM | 442 nM
25 | Cc1ccncc1-n1c(=O)c2ncn(C)c2c2ccc(C(F)(F)F)nc21 [Compound 28, 1-methyl-5-(4-methylpyridin-3-yl)-7-(trifluoromethyl)-1,5-dihydro-4H-imidazo[4,5-c][1,8]naphthyridin-4-one] | 100 to 500 nM | 165 nM
26 | CCOc1ccc2c3[nH]c(=O)[nH]c3c(=O)n(-c3ccc(OC(F)F)cc3)c2n1 [Compound 10, 5-(4-(difluoromethoxy)phenyl)-7-ethoxy-3,5-dihydro-1H-imidazo[4,5-c][1,8]naphthyridine-2,4-dione] | < 100 nM | 33 nM
